# Target: T1, human renal renin (Homo sapiens, UniProt P00797)
# T1 construct: human renal renin, free from acid proteolytic activity; from tissue; host or cells: human kidney (from the word 'renal')
# T1 sequence (P00797 67-406): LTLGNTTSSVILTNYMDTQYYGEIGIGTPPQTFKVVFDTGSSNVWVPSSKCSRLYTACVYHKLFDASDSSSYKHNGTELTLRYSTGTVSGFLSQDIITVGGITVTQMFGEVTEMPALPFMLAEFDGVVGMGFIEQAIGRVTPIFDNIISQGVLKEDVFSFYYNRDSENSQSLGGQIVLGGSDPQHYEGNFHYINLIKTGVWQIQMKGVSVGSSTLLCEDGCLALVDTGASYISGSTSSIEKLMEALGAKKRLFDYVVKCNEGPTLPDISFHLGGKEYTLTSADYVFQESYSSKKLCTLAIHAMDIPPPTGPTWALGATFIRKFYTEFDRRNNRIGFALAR
# Test: inhibition of human renal renin in vitro, angiotensin I formed measured by radioimmunoassay
# Format: biochemical
# Details: human angiotensinogen substrate, 37 degrees C, pH 6.0
# Procedure: At the end of the incubation, the amount of angiotensin I formed is measured by radioimmunoassay and the molar concentration required to cause 50% inhibition, expressed as the IC50, is calculated.
row,SMILES,IC50 [nM]
1,"CC(C)C[C@H](O)[C@H](O)[C@H](CC1CCCCC1)NC(=O)[C@H](Cc1c[nH]cn1)NC(=O)N1CCc2ccccc2C1 [Example 114, N-(1,2,3,4-Tetrahydroisoquinolinyl-2-carbonyl)-His Amide of 2(S)-Amino-1-cyclohexyl-3(R),4(S)-dihydroxy-6-methylheptane]",63
2,"CC(C)C[C@H](O)[C@H](O)[C@H](CC1CCCCC1)NC(=O)[C@H](CC(C)C)N1Cc2c([nH]c3ccccc23)C1=O [Example 70, (1'S,2""S,3""R,4""S)-2-[1-[N-(1-cyclohexyl-3,4-dihydroxy-6-methyl-2-heptyl)carbamoyl]-3-methylbutyl]-1,2,3,4-tetrahydropyrrolo[3,4-b]indol-3-one]",100
3,"CC(C)C[C@H](O)[C@H](O)[C@H](CC1CCCCC1)NC(=O)[C@H](Cc1c[nH]cn1)N1Cc2c([nH]c3ccccc23)C1=O [Example 58, (1'S,2""S,3""R,4""S)-2-[1-[N-(1-Cyclohexyl-3,4-dihydroxy-6-methyl-2-heptyl)carbamoyl]-2-(4-imidazolyl)ethyl]-1,2,3,4-tetrahydropyrrolo[3,4-b]indol-3-one]",8.2
4,"O=C(N[C@@H](Cc1c[nH]cn1)C(=O)NCC(O)CO)c1[nH]c2ccccc2c1CCC=CC1CCCCC1 (stereo partly drawn) [Example 127, N-[3-(4-Cyclohexylbut-3-enyl)indolyl-2-carbonyl]-His Amide of 3-Amino-1,2-propanediol]",7000
5,CC(C)C[C@H](O)[C@H](O)[C@H](CC1CCCCC1)NC(=O)[C@H](Cc1c[nH]cn1)NC(=O)c1nc2ccccc2n1Cc1ccccc1 [Example 48],170
6,"CC(C)C[C@H](O)[C@H](O)[C@H](CC1CCCCC1)NC(=O)CN1Cc2c([nH]c3ccccc23)C1=O [Example 75, (2'S,3'R,4'S)-2-[N-(1-cyclohexyl-3,4-dihydroxy-6-methyl-2-heptyl)carbamoyl]methyl-1,2,3,4-tetrahydropyrrolo[3,4-b]indol-3-one]",200
7,"O=C(N[C@@H](Cc1c[nH]cn1)C(=O)NCC(O)CO)c1[nH]c2ccccc2c1CCc1ccccc1 (stereo partly drawn) [Example 130, [3-(2-Phenylethyl)indolyl-2-carbonyl]-His Amide of 3-Amino-1,2-propanediol]",10000
8,"CC(C)C[C@H](O)[C@H](O)[C@H](CC1CCCCC1)NC(=O)[C@H](Cc1cscn1)N1Cc2c([nH]c3ccccc23)C1=O [Example 81, (1'S,2""S,3""R,4""S)-2-[1-[N-(1-cyclohexyl-3,4-dihydroxy-6-methyl-2-heptyl)carbamoyl]-2-(4-thiazolyl)ethyl]-1,2,3,4-tetrahydropyrrolo[3,4-b]indol-3-one]",5
9,"CCCCC(C(=O)N[C@@H](CC1CCCCC1)[C@@H](O)[C@@H](O)CC(C)C)N1Cc2c([nH]c3ccccc23)C1=O (stereo partly drawn) [Example 93, (1'RS,2""S,3""R,4""S)-2-[1-[N-(1-Cyclohexyl-3,4-dihydroxy-6-methyl-2-heptyl)carbamoyl]pentyl]-1,2,3,4-tetrahydropyrrolo[3,4-b]indol-3-one]",44
10,"CC(C)C[C@H](O)[C@H](O)[C@H](CC1CCCCC1)NC(=O)[C@H](CCC(=O)O)NC(=O)c1cc2ccccc2[nH]1 [Example 38, N-(Indolyl-2-carbonyl)-Glu Amide of 2(S)-Amino-1-cyclohexyl-3(R),4(S)-dihydroxy-6-methylheptane]",130

# More lines, in order of falling IC50, values ahead:
row,IC50 [nM],SMILES
1,3800,"O=C(N[C@@H](Cc1c[nH]cn1)C(=O)NCC(O)CO)c1[nH]c2ccccc2c1CCCC1CCCCC1 (stereo partly drawn) [Example 125, N-[3-(3-Cyclohexylpropyl)indolyl-2-carbonyl]-His Amide of 3-Amino-1,2-propanediol]"
2,200,"CC1=C(C(=O)N[C@@H](Cc2c[nH]cn2)C(=O)N[C@@H](CC2CCCCC2)[C@@H](O)[C@@H](O)CC(C)C)Cc2ccccc21 [Example 42, N-(3-Methylindenyl-2-carbonyl)-His Amide of 2(S)-Amino-1-cyclohexyl-3(R),4(S)-dihydroxy-6-methylheptane]"
3,160,"CC(C)C[C@H](O)[C@H](O)[C@H](CC1CCCCC1)NC(=O)[C@H](Cc1c[nH]cn1)NC(=O)c1cc2ccccc2n1C [Example 41, N-(1-Methylindolyl-2-carbonyl)-His Amide of 2(S)-Amino-1-cyclohexyl-3(R),4(S)-dihydroxy6-methylheptane]"
4,130,"CC(C)C[C@H](O)[C@H](O)[C@H](CC1CCCCC1)NC(=O)[C@H](CCC(=O)OCc1ccccc1)NC(=O)c1cc2ccccc2[nH]1 [Example 37, N-(Indolyl-2-carbonyl)-γ-benzyl-Glu Amide of 2(S)-Amino-1-cyclohexyl-3(R),4(S)-dihydroxy-6-methylheptane]"
5,67,"CC(C)C[C@H](O)[C@H](O)[C@H](CC1CCCCC1)NC(=O)[C@H](Cc1c[nH]cn1)N1CCc2c([nH]c3ccccc23)C1=O [Example 101, (1'S,2""S,3""R,4""S)-2-[1-[N-(1-Cyclohexyl-3,4-dihydroxy-6-methyl-2-heptyl)carbamoyl]-2-(4-imidazolyl)ethyl]-1,2,3,4-tetrahydro-9H-pyrido[3,4-b]indol-1-one]"
6,31,"CC(C)C[C@H](O)[C@H](O)[C@H](CC1CCCCC1)NC(=O)[C@H](Cc1c[nH]cn1)NC(=O)c1nc2ccccc2s1 [Example 45, N-(Benzothiazolyl-2-carbonyl)-His Amide of 2(S)-Amino-1-cyclohexyl-3(R),4(S)-dihydroxy-6-methylheptane]"
7,28,"CCN1C[C@@H]([C@H](O)[C@H](CC2CCCCC2)NC(=O)C(Cc2cscn2)N2Cc3c([nH]c4ccccc34)C2=O)OC1=O (stereo partly drawn) [Example 88, (1'RS,2""S,3""R,5""'S)-2-[1-[N-[1-Cyclohexyl-3-hydroxy-3-(3-ethyloxazolidin-2-on-5-yl)-2-propyl]carbamoyl]-2-(4-thiazolyl)ethyl]-1,2,3,4-tetrahydropyrrolo[3,4-b]indol-3-one]"
8,27,"COCOC[C@H](NC(=O)c1cc2ccccc2[nH]1)C(=O)N[C@@H](CC1CCCCC1)[C@@H](O)[C@@H](O)CC(C)C [Example 150, N-(Indolyl-2-carbonyl)-(O-methoxymethyl)Ser Amide of 2(S)-Amino-1-cyclohexyl-3(R),4(S)-dihydroxy-6-methylheptane]"
9,19,"CCN1C[C@@H]([C@H](O)[C@H](CC2CCCCC2)NC(=O)[C@H](Cc2c[nH]cn2)N2Cc3c([nH]c4ccccc34)C2=O)OC1=O [Example 59, (1'S,2""S,3""R,5'""S)-2-[1-[N-[1-Cyclohexyl-3-hydroxy-3-(3-ethyloxazolidin-2-on-5-yl)-2-propyl]carbamoyl]-2-(4-imidazolyl)ethyl]-1,2,3,4-tetrahydropyrrolo[3,4-b]indol-3-one]"
10,12,"CCN1C[C@@H]([C@H](O)[C@H](CC2CCCCC2)NC(=O)[C@H](Cc2c[nH]cn2)NC(=O)c2cc3ccccc3[nH]2)OC1=O [Example 51, N-(Indolyl-2-carbonyl)-His-Amide of (2'S,1'R,5S)-3-Ethyl-5-(1'-hydroxy-2'-amino-3'-cyclohexylpropyl)oxazolidin-2one]"
11,8.7,"CC(C)C[C@H](O)[C@H](O)[C@H](CC1CCCCC1)NC(=O)[C@H](Cc1c[nH]cn1)NC(=O)c1ccc2ccccc2n1 [Example 110, N-(Quinolinyl-2-carbonyl)-His Amide of 2(S)-Amino-1-cyclohexyl-3(R),4(S)-dihydroxy-6-methylheptane]"

# From patent publication US4994477A, “Heterocyclic renin inhibitors” (Abbott Laboratories, priority 1988, dated 1991)
